Measured values from article PMC13110364, “Design, Synthesis, and Biological Evaluation of Novel Triazine‐Based Dual Histone Deacetylase/phosphatidylinositol 3‐kinase Inhibitors for Breast Cancer Therapy” (Chemmedchem, 2026).

Legend:
[1] = tested on: MDA‐MB‐231 triple‐negative breast cancer cell line; test: MTS cell viability assay, MDA-MB-231; assay type: cell-based; settings: Homo sapiens, MDA-MB-231, 72 h, MDA‐MB‐231 cells, 72 h treatment
Method: (§1) The cell viability effects of compounds 5a–5f were assessed in LY2, JIMT1, and MDA‐MB‐231 breast cancer cell lines using the 3‐(4,5‐dimethylthiazol‐2‐yl)‐5‐(3‐carboxymethoxyphenyl)‐2‐(4‐sulfophenyl)‐2H‐tetrazolium (MTS) assay. The MTS assay measures metabolic viability and serves as a first‐pass screen.
(§2) JIMT‐1 (DSMZ ACC 589) and MDA‐MB‐231 (ATCC HTB‐26) breast cancer cell lines were maintained in Dulbecco's Modified Eagle Medium (DMEM) High Glucose with L‐glutamine (D5796, Sigma) supplemented with 10% fetal calf serum. MCF7‐derivative LY2 breast cancer cells were previously described (REF: PMID: 33420368). LY2 cells were cultured in phenol red‐free MEM (PRF‐MEM; 51 200‐046, Gibco) supplemented with 10% charcoal dextran‐stripped fetal calf serum (CDS‐FCS; F6765, Merck), 2 mmol/L L‐glutamine (G7513, Merck), and 10^−8 mol/L 4‐hydroxytamoxifen (4‐OHT; H7904, Merck). All cell lines were maintained at 37°C in a humidified incubator with 5% CO2 and regularly authenticated and tested for mycoplasma.
(§3) Cell viability was evaluated in response to increasing concentrations of 5a‐5f (0.3, 1, 3, 10, and 30 μM) or vehicle control (0.1% DMSO). LY2, JIMT1, and MDA‐MB‐231 cells were seeded at a density of 2,500 cells per well in 96‐well plates with a total volume of 100 μL per well. Prior to treatment, cells were serum‐deprived for 24 h. Following serum depletion, cells were treated in complete growth medium for 72 h. Cell viability was assessed using the MTS assay (G1111, Promega) according to the manufacturer's instructions. Absorbance was measured at 495 nm using a BioTek Synergy HTX Multi‐Mode Microplate Reader (Agilent). Results were normalized to the vehicle control (DMSO), and the half‐maximal inhibitory concentration (IC50) of the inhibitors was determined by nonlinear regression (curve fit) using a four‐parameter variable slope model.

LY2 breast cancer cells = test: MTS cell viability assay, LY2; assay type: cell-based; settings: 72 h treatment
Method: as §1, §2, §3

[2] = tested on: JIMT1 breast cancer cells; test: MTS cell viability assay, JIMT1; assay type: cell-based; settings: Homo sapiens, JIMT-1, 72 h treatment
Method: as §1, §2, §3

PI3Kα = PI3Kα (Homo sapiens, UniProt P42336); design: method as in earlier work; settings: cited from earlier work
HDAC = tested on: HDAC; design: method as in earlier work; settings: cited from earlier work
HDAC4 = HDAC4 (Homo sapiens, UniProt P56524); design: method as in PMID 32022441; settings: cited from earlier work
HDAC1 = HDAC1 (Homo sapiens, UniProt Q13547); design: method as in PMID 32022441; settings: cited from earlier work
[3] = design: method as in PMID 32022441; settings: previous studies of the authors ref 25; cited from earlier work
MCF‐10A cells = test: Cell viability in nontransformed cell line MCF-10A; assay type: cell-based; settings: Homo sapiens
Excerpt: Thus, further optimization will be required to improve the therapeutic index.
FIGURE 5 Dose‐dependent effects of compound treatment (5b and 5f) on nontransformed breast cell viability across MCF‐10A.

HDAC5 = tested on: HDAC5; design: method as in PMID 22693356; settings: cited from earlier work
HDAC9 = tested on: HDAC9; design: method as in PMID 22693356; settings: cited from earlier work
HDAC2 = tested on: HDAC2; design: method as in PMID 22693356; settings: cited from earlier work

Sequence of PI3Kα (P42336 whole entry): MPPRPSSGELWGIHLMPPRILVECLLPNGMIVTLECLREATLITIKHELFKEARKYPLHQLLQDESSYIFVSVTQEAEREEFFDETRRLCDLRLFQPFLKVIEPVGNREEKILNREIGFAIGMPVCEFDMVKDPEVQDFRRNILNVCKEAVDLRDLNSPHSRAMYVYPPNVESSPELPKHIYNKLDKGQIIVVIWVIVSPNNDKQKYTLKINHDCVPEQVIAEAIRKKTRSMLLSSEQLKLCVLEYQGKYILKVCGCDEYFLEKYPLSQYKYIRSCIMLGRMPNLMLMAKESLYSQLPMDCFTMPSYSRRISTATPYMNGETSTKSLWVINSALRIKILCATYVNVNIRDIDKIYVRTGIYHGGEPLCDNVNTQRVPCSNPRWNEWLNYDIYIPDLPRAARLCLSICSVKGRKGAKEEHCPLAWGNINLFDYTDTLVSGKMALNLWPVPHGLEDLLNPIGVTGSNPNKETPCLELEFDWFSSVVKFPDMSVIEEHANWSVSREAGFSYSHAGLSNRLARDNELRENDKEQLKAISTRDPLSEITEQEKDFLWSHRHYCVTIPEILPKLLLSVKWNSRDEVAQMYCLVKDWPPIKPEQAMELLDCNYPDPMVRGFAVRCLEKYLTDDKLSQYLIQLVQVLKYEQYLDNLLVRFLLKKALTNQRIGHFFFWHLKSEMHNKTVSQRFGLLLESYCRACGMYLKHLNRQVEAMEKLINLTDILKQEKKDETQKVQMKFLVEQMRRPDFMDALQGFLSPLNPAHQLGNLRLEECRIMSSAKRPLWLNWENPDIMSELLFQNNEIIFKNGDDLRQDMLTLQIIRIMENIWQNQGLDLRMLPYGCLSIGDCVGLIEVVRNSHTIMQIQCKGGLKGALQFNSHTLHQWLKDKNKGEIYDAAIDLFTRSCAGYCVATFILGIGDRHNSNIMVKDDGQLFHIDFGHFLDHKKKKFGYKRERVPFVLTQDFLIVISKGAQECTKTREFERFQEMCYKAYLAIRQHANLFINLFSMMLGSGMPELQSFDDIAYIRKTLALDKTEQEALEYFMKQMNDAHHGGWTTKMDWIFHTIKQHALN
Sequence of PI3Kα (P27986 whole entry partner): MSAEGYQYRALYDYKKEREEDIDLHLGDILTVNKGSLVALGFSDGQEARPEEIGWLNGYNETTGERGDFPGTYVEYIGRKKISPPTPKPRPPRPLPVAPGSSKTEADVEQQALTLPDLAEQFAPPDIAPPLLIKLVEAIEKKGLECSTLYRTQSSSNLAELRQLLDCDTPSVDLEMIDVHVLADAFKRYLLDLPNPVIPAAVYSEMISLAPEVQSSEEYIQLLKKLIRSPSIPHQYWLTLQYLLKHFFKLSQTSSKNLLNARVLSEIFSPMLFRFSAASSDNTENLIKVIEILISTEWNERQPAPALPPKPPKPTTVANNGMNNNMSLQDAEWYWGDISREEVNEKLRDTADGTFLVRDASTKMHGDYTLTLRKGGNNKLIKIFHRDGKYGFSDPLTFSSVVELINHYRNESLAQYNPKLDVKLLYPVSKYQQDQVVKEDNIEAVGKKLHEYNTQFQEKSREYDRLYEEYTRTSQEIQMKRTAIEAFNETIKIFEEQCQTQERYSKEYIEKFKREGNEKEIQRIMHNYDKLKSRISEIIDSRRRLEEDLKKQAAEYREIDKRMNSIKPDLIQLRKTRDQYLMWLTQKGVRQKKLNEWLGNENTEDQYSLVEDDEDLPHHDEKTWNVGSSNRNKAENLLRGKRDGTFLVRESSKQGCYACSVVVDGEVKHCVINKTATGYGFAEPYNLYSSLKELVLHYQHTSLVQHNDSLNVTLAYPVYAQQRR
Sequence of HDAC1 (Q13547 whole entry): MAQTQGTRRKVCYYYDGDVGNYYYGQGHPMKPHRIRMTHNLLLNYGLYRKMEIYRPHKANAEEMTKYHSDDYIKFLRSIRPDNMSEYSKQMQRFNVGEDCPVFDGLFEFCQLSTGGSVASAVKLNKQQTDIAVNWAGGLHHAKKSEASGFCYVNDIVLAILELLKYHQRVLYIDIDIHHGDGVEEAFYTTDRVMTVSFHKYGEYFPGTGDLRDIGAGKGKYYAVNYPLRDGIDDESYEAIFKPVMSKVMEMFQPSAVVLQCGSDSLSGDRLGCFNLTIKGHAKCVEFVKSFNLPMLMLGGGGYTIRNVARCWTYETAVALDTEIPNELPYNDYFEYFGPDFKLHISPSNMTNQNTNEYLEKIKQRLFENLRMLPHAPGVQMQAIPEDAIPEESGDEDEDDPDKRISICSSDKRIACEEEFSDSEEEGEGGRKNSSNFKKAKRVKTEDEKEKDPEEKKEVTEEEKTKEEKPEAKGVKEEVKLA
Sequence of HDAC4 (P56524 whole entry): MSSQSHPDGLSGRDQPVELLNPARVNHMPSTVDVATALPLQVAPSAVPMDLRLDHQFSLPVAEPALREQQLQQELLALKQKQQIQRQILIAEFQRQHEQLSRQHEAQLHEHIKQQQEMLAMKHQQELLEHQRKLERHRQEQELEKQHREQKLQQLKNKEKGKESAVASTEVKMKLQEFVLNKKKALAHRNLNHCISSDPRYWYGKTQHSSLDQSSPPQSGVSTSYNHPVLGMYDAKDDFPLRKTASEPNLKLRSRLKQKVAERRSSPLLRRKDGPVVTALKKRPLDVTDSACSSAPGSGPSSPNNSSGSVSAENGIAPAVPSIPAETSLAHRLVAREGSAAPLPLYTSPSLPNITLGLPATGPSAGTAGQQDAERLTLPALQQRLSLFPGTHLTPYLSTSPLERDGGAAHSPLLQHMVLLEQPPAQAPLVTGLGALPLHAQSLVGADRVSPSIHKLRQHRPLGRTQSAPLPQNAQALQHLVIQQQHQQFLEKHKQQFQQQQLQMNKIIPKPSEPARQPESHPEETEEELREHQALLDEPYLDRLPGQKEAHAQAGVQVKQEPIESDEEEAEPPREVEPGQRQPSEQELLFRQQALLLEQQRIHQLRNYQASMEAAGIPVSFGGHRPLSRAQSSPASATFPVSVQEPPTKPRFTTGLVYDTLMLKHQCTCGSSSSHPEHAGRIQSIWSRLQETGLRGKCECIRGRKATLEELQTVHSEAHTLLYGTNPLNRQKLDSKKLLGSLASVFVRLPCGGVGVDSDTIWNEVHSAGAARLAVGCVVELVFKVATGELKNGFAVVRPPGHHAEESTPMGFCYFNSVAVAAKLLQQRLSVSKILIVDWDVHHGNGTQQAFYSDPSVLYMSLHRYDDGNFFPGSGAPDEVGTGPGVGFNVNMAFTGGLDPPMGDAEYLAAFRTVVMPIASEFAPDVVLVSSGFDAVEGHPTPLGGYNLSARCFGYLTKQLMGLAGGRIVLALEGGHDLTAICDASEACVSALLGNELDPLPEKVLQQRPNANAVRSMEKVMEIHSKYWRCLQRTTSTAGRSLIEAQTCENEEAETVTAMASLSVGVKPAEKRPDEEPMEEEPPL

Row | SMILES | IC50 [1] | IC50 (LY2 breast cancer cells) | IC50 [2] | further results
1 | Nc1ncc(-c2nc(NCc3ccc(C(=O)NO)cc3)nc(N3CCOCC3)n2)cn1 [Compound 5e, 4‐(((4‐(2‐Aminopyrimidin‐5‐yl)‐6‐Morpholino‐1,3,5‐Triazin‐2‐yl)Amino)Methyl)‐N‐Hydroxybenzamide] | 10.4 µM | 8.84 ± 3.47 µM | 15.6 ± 6.48 µM | 
2 | CNc1ccc(-c2nc(N3CCOCC3)c3sc(CN(C)c4ncc(C(=O)NO)cn4)cc3n2)cn1 [Ifupinostat, ifupinostat] |  |  |  | IC50 (PI3Kα): < 0.1 µM; IC50 (HDAC): 0.1 to 1 µM
3 | Nc1ccc(-c2nc(NCc3ccc(C(=O)NO)cc3)nc(N3CCOCC3)n2)cn1 [Compound 5d, 4‐(((4‐(6‐Aminopyridin‐3‐yl)‐6‐Morpholino‐1,3,5‐Triazin‐2‐yl)Amino)Methyl)‐N‐Hydroxybenzamide] | 13.1 ± 6.08 µM | 10.3 ± 3 µM | 8.97 ± 2.64 µM | 
4 | O=C(NO)c1ccc(/C=N/NC(=O)c2cc(N3CCOCC3)nc(-c3cccc(O)c3)n2)cc1 [LASSBio-2208] |  |  |  | IC50 (HDAC4): > 3 µM; IC50 (HDAC1): > 3 µM; stability of the NAH motif [3]: acid‐labile
5 | COc1ccc(-c2nc(N3CCOCC3)c3sc(CN(C)c4ncc(C(=O)NO)cn4)cc3n2)cn1 [Fimepinostat, fimepinostat, reference compound] | < 0.3 µM | < 0.3 µM | < 0.3 µM | IC50 (MCF‐10A cells): < 0.3 µM; IC50 (HDAC5): […]; IC50 (HDAC9): […]; IC50 (HDAC2): […]
6 | O=C(NO)c1ccc(CNc2nc(-c3cccnc3)nc(N3CCOCC3)n2)cc1 [Compound 5c, N‐Hydroxy‐4‐(((4‐Morpholino‐6‐(pyridin‐3‐yl)−1,3,5‐Triazin‐2‐yl)Amino)Methyl)Benzamide] | 9.43 µM | 10 µM | 10.5 µM | 
7 | O=C(NO)c1ccc(CNc2nc(-c3ccccc3)nc(N3CCOCC3)n2)cc1 [Compound 5a, N‐Hydroxy‐4‐(((4‐Morpholino‐6‐Phenyl‐1,3,5‐Triazin‐2‐yl)Amino)Methyl)Benzamide] | 5.8 ± 0.6 µM | 10.9 µM | 8.58 ± 0.14 µM | 
